According to US20260262643A1, “HERBICIDAL BENZOXAZINES” (FMC CORPORATION, priority 2022, published 2026):

Columns and labels:
oat, wild [1] = assay: Test C preemergence; type: in vivo, Avena fatua; conditions: 0 to 100 scale (0 no effect, 100 complete control)
In short: (§1)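 Visual injury score, 0–100 (100 = complete control), taken 10 days after treatment relative to untreated controls. Pre: directed spray onto soil over sown seeds. Post: foliar spray at one- to two-leaf stage, 2–10 cm. Solvent/surfactant formulation; loam–sand soil; greenhouse.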

pigweed, palmer [2] = assay: Test C preemergence; type: in vivo, Amaranthus palmeri; conditions: 0 to 100 scale (0 no effect, 100 complete control)
In short: as §1

corn [3] = assay: Test C preemergence; type: in vivo, Zea mays; conditions: 0 to 100 scale (0 no effect, 100 complete control)
In short: as §1

corn [4] = assay: Test C postemergence; type: in vivo, Zea mays; conditions: 10 days
In short: as §1

galium = assay: Test C postemergence; type: in vivo, Galium aparine; conditions: 10 days
In short: as §1

barnyardgrass [5] = assay: Test C preemergence; type: in vivo, Echinochloa crusgalli; conditions: 0 to 100 scale (0 no effect, 100 complete control)
In short: as §1

barnyardgrass [6] = assay: Test C postemergence; type: in vivo, Echinochloa crusgalli; conditions: 10 days
In short: as §1

ragweed [7] = assay: Test C preemergence; type: in vivo, Ambrosia artemisiifolia; conditions: 0 to 100 scale (0 no effect, 100 complete control)
In short: as §1

rice = assay: Test D flooded paddy test; type: in vivo, Oryza sativa; conditions: 250 g ai/ha, applied to paddy water, visual rating after 13 to 14 days, scale 0 to 100 (0 no effect, 100 complete control)
In short: (§2)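 At the 2-leaf stage, floodwater 3 cm deep received the test compound; that depth persisted throughout. Plants scored visually 13 to 14 days on, 0 (no effect) to 100 (complete control), dash indicating no result.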

kochia [8] = assay: Test C postemergence; type: in vivo, Bassia scoparia; conditions: 10 days
In short: as §1

horseweed = assay: Test C postemergence; type: in vivo, Erigeron canadensis; conditions: 10 days
In short: as §1

wheat [9] = assay: Test C preemergence; type: in vivo, Triticum aestivum; conditions: 0 to 100 scale (0 no effect, 100 complete control)
In short: as §1

ryegrass, Italian [10] = assay: Test C preemergence; type: in vivo, Lolium multiflorum; conditions: 0 to 100 scale (0 no effect, 100 complete control)
In short: as §1

kochia [11] = assay: Test C preemergence; type: in vivo, Bassia scoparia; conditions: 0 to 100 scale (0 no effect, 100 complete control)
In short: as §1

sedge, umbrella = assay: Test D flooded paddy test; type: in vivo, Cyperus difformis; conditions: 250 g ai/ha, applied to paddy water, visual rating after 13 to 14 days, scale 0 to 100 (0 no effect, 100 complete control)
In short: as §2

soybean [12] = assay: Test C preemergence; type: in vivo, Glycine max; conditions: 0 to 100 scale (0 no effect, 100 complete control)
In short: as §1

soybean [13] = assay: Test C postemergence; type: in vivo, Glycine max; conditions: 10 days
In short: as §1

blackgrass [14] = assay: Test C postemergence; type: in vivo, Alopecurus myosuroides; conditions: 10 days
In short: as §1

barnyardgrass [15] = assay: Test D flooded paddy test; type: in vivo, Echinochloa crus-galli; conditions: 250 g ai/ha, applied to paddy water, visual rating after 13 to 14 days, scale 0 to 100 (0 no effect, 100 complete control)
In short: as §2

pigweed, palmer [16] = assay: Test C postemergence; type: in vivo, Amaranthus palmeri; conditions: 10 days
In short: as §1

ducksalad = assay: Test D flooded paddy test; type: in vivo, Heteranthera limosa; conditions: 250 g ai/ha, applied to paddy water, visual rating after 13 to 14 days, scale 0 to 100 (0 no effect, 100 complete control)
In short: as §2

green foxtail [17] = assay: Test C postemergence; type: in vivo, Setaria viridis; conditions: 10 days
In short: as §1

green foxtail [18] = assay: Test C preemergence; type: in vivo, Setaria viridis; conditions: 0 to 100 scale (0 no effect, 100 complete control)
In short: as §1

ryegrass, Italian [19] = assay: Test C postemergence; type: in vivo, Lolium multiflorum; conditions: 10 days
In short: as §1

wheat [20] = assay: Test C postemergence; type: in vivo, Triticum aestivum; conditions: 10 days
In short: as §1

blackgrass [21] = assay: Test C preemergence; type: in vivo, Alopecurus myosuroides; conditions: 0 to 100 scale (0 no effect, 100 complete control)
In short: as §1

oat, wild [22] = assay: Test C postemergence; type: in vivo, Avena fatua; conditions: 10 days
In short: as §1

ragweed [23] = assay: Test C postemergence; type: in vivo, Ambrosia artemisiifolia; conditions: 10 days
In short: as §1

[24] = Preemergence, 500 g ai/ha, visual rating after 10 days
[25] = Test C, preemergence, 125 g ai/ha
[26] = 125 g ai/ha, postemergence, 0 to 100 scale, 0 no effect, 100 complete control
[27] = Postemergence, 500 g ai/ha, visual 0 to 100 scale (0 no effect, 100 complete control)

COc1ccc(-n2cnc(C(C)C)n2)cc1C(=O)N1C[C@H](C)Oc2c1cccc2C(F)(F)F [Compound 171]
Plant response rating, Oat, Wild (oat, wild [1]; [24]): 80 | Oat, Wild plant response rating (oat, wild [1]; [25]): 70 | Plant response rating, Pigweed, Palmer (pigweed, palmer [2]; [24]): 100 | Pigweed, Palmer plant response rating (pigweed, palmer [2]; [25]): 100 | Plant response rating, Corn (corn [3]; [24]): 40 | Corn plant response rating (corn [3]; [25]): 30 | Plant response rating, Corn (corn [4]; [26]): 20 | Plant response rating, Corn (corn [4]; [27]): 20 | Plant response rating, Galium (galium; [26]): 100 | Plant response rating, Galium (galium; [27]): 100 | Plant response rating, Barnyardgrass (barnyardgrass [5]; [24]): 100 | Barnyardgrass plant response rating (barnyardgrass [5]; [25]): 90 | Plant response rating, Barnyardgrass (barnyardgrass [6]; [26]): 30 | Plant response rating, Barnyardgrass (barnyardgrass [6]; [27]): 40 | Plant response rating, Ragweed (ragweed [7]; [24]): 90 | Ragweed plant response rating (ragweed [7]; [25]): 60 | Plant response rating, Rice (Flood) (rice): 0 | Plant response rating, Kochia (kochia [8]; [26]): 90 | Plant response rating, Kochia (kochia [8]; [27]): 90 | Plant response rating, Horseweed (horseweed; [26]): 20 | Plant response rating, Horseweed (horseweed; [27]): 80 | Plant response rating, Wheat (wheat [9]; [24]): 90 | Wheat plant response rating (wheat [9]; [25]): 40 | Plant response rating, Ryegrass, Italian (ryegrass, Italian [10]; [24]): 90 | Ryegrass, Italian plant response rating (ryegrass, Italian [10]; [25]): 50 | Plant response rating, Kochia (kochia [11]; [24]): 90 | Kochia plant response rating (kochia [11]; [25]): 90 | Plant response rating, Sedge, Umbrella (Flood) (sedge, umbrella): 95 | Plant response rating, Soybean (soybean [12]; [24]): 100 | Soybean plant response rating (soybean [12]; [25]): 60 | Plant response rating, Soybean (soybean [13]; [26]): 100 | Plant response rating, Soybean (soybean [13]; [27]): 100 | Plant response rating, Blackgrass (blackgrass [14]; [26]): 30 | Plant response rating, Blackgrass (blackgrass [14]; [27]): 80 | Plant response rating, Barnyardgrass (Flood) (barnyardgrass [15]): 0 | Plant response rating, Pigweed, Palmer (pigweed, palmer [16]; [26]): 100 | Plant response rating, Pigweed, Palmer (pigweed, palmer [16]; [27]): 100 | Plant response rating, Ducksalad (Flood) (ducksalad): 60 | Plant response rating, Foxtail, Green (green foxtail [17]; [26]): 40 | Plant response rating, Foxtail, Green (green foxtail [17]; [27]): 50 | Plant response rating, Foxtail, Green (green foxtail [18]; [24]): 100 | Foxtail, Green plant response rating (green foxtail [18]; [25]): 100 | Plant response rating, Ryegrass, Italian (ryegrass, Italian [19]; [26]): 60 | Plant response rating, Ryegrass, Italian (ryegrass, Italian [19]; [27]): 80 | Plant response rating, Wheat (wheat [20]; [26]): 10 | Plant response rating, Wheat (wheat [20]; [27]): 40 | Plant response rating, Blackgrass (blackgrass [21]; [24]): 70 | Blackgrass plant response rating (blackgrass [21]; [25]): 70 | Plant response rating, Oat, Wild (oat, wild [22]; [26]): 10 | Plant response rating, Oat, Wild (oat, wild [22]; [27]): 50 | Plant response rating, Ragweed (ragweed [23]; [26]): 60 | Plant response rating, Ragweed (ragweed [23]; [27]): 70
